# From US8133491B1, “Compositions and methods for treatment of hyperplastic disorders” (priority 2009, dated 2012)
# Key:
# [1] = tested on: prostate; assay: Intraprostatic injection in rats: prostate weight / size; parameters: species or system Sprague-Dawley rats; details: rat, in vivo
# [2] = tested on: prostate; assay: Histology (hematoxylin and eosin) of injected rat prostates; parameters: species or system Sprague-Dawley rats; details: in vivo
# Procedure: (§1) Rats were anesthetized with isoflurane gas. The hair was shaved and the incision region was scrubbed with Betadine. A lower abdominal midline incision was made providing exposure to the bladder and prostate. 0.1 mL of toxin or saline was injected into each right and left ventral lobe using a 30-gauge needle. The abdominal wall and skin were then closed in two layers. After 2 weeks the animals were sacrificed by an overdose of sodium Pentobarbital (200 mg/kg i.p.) The prostates were removed en bloc along with the bladder and urethra. The prostates were then carefully dissected from the bladder neck and urethra, weighed and fixed in 10% phosphate buffered formalin.
# The fixed prostates were embedded in paraffin and sectioned at a thickness of 4 microns. Sections were stained with hematoxylin and eosin and analyzed for morphology. […] Under 400× magnification, four random areas of the ventral prostate from each animal were examined and the total numbers of stained and unstained cells were counted in the entire field. […] The mean number of stained and unstained cells was determined for each animal.
# [3] = tested on: ventral prostate; assay: TUNEL stain for apoptosis in prostate sections; parameters: species or system Sprague-Dawley rats; details: rat, in vivo
# Procedure: (§2) The fixed prostates were embedded in paraffin and sectioned at a thickness of 4 microns. Sections were stained with hematoxylin and eosin and analyzed for morphology. Immunohistochemical analysis was performed on prostate sections for evidence of apoptosis with TUNEL stain (terminal deoxynucleotidyl-mediated deoxyuridine triphosphate nick end labeling) using a commercially available kit (GenScript Corporation, Piscataway, N.J.), and for cellular proliferation with PCNA stain (proliferating cell nuclear antigen) using a commercially available kit (Invitrogen Corporation, Camarillo, Calif.). A stained slide from each animal was randomly assigned a number in a blind fashion. Under 400× magnification, four random areas of the ventral prostate from each animal were examined and the total numbers of stained and unstained cells were counted in the entire field. This was done for both TUNEL and PCNA stained slides for each animal. The mean number of stained and unstained cells was determined for each animal.
# [4] = tested on: ventral prostate; assay: PCNA stain for cellular proliferation in prostate sections; parameters: species or system Sprague-Dawley rats; details: rat, in vivo
# Procedure: as §2
# [5] = Body weight and complications after intraprostatic injection; parameters: species or system Sprague-Dawley rats; details: rat, in vivo
# Excerpt: Eighteen adult male Sprague-Dawley rats (420-560 g) were used in this study. The animals were housed in the animal care center under controlled lighting conditions (lights on 6 AM-6 PM), with food and water always available. The animals were monitored for behavior, food and water intake, and weight. Subsequent experiments were approved by the University of Toledo's Institutional Animal Care and Use Committee.
# as §1
# [6] = tested on: prostate; details: rat, in vivo; cited from earlier work
substance,measurement,setting,value
Botulinum toxin type A [BTA],Prostate Wt (grams) Mean,[1],2.627 grams
same,Prostate Wt /100 g Body Wt Mean,[1],0.586
same,prostate size / weight (in words),[1],did not show a statistically significant decrease in prostatic weight
same,histology of prostate (in words),[2],prostatic atrophy of the glandular component with flattening of the epithelial lining
same,TUNEL Assay # of Apoptotic Cells Mean,[3],211.1
same,"number of apoptotic cells, TUNEL staining (in words)",[3],significant increase in the number of apoptotic cells
same,PCNA Assay # of Proliferating Cells Mean,[4],26.2
same,"cellular proliferation, PCNA staining (in words)",[4],significant increase in cellular proliferation
same,2 wks Post-Injection Wt (grams) Mean,[5],449 grams
same,Change in Body Weight Mean,[5],−51.667
same,Pre-Injection Wt (grams) Mean,[5],501 grams
same,body weight (in words),[5],significant loss in body weight
same,prostatic weight (Doggweiler et al.),[6],decrease in prostatic weight
